In patent publication US10889611B2, “Sialyltransferase inhibitors and uses thereof” (Academia Sinica, priority 2015, dated 2021):
Like-named read-outs stand apart in the source and are kept apart here. Marks after values point to notes of the source that are not given here.

How the values were obtained:
MDA-MB-231 cells = assay: Transwell migration assay, breast cancer cells; format: cell-based, human
Text: Migration assays were done using a transwell, in which a polycarbonate filter pre-coated with Matrigel (8-μm pores, Millicell; Millipore, Billerica, Mass.) was inserted therein. […] Cells that had migrated to the underside of the inserted filter were stained with hematoxylin solution. The cells in the upper side of the inserted membrane were rubbed with a cotton swab. The migrated cells on the underside were pictured in a 200× magnification field and quantified.

[1] = molecular target: T1, α2,3(N)-sialyltransferase ST3GALIII (Rattus norvegicus, UniProt Q02734); assay: Sialyltransferase activity assay, ST3GALIII; format: biochemical; conditions: α2,3-N-link
T1 construct: purchased Calbiochem
T1 sequence (Q02734 1-374): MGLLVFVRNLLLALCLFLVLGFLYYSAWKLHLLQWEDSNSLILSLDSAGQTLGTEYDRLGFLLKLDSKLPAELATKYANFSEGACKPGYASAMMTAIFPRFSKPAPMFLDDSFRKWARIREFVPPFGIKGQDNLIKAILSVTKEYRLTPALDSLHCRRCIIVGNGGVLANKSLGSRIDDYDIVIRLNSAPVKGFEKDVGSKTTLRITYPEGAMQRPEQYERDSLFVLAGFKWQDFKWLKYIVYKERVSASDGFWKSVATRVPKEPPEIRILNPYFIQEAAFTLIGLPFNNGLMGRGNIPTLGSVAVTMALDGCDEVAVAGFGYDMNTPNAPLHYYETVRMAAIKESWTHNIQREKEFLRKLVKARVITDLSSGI

[2] = molecular target: T2, α2,3(O)-sialyltransferase ST3GALI (Rattus norvegicus, UniProt Q6H8N0); assay: Sialyltransferase inhibition assay, ST3GALI (reverse-phase HPLC); format: biochemical; conditions: for inhibition at 500 µM: measured at 500 μM
T2 construct: purchased Calbiochem
T2 sequence (Q6H8N0 1-340): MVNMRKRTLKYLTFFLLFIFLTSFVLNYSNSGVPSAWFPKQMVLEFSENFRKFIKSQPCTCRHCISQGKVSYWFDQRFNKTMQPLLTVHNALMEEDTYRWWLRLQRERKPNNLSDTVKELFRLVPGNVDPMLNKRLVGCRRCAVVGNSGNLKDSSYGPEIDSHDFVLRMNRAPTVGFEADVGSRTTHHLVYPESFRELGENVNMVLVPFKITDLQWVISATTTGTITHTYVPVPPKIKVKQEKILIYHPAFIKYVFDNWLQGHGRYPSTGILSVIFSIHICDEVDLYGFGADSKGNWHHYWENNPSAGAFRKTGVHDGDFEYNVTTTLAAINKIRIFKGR
Protocol: (§1) The enzymes analyzed in the present study included rat ST3Gal(I), rat ST3Gal(III), and human ST6Gal(I). Rat ST3Gal(I) and rat ST3Gal(Ill), were purchased from Calbiochem®, while human ST6Gal(I) was purchased from RnDSystems.com.
(§2) Sialyltransferase inhibition assay […] was performed as follows: Sialyltransferase activity was determined by measuring the level of the end product of sialylated saccharides with reverse-phase HPLC. The assay mixtures contained the following components: 200 mM MES buffer; 100 mM NaCl; 0.5 mM EDTA; 0.01% Triton X-100; 1.4 mU ST3GALI; 2.5 mM T-antigen; 1 mM CMP-Neu5Ac and different concentration of Sialyltransferase inhibitors to a total volume of 50 μl. The assay mixture was incubated at 37° C. for 15 mins and then quenched by heating up to 101′C for 10 mins. The sialylated product was resolved by reversed-phase HPLC. Kinetic data were obtained by fitting the initial rate data to the nonlinear regression equation.
(§3) Effects of the present compounds on the activity of sialyltransferase, including α2,3(N)-sialyltransferase ST3GALIII, α2,6(N)-sialyltransferases ST6GALI, and α2,3(O)-sialyltransferase ST3GALI, were determined in accordance with procedures described in the “Materials and Methods” section, and results are summarized in Table 1.

[3] = molecular target: T3, α2,6(N)-sialyltransferases ST6GALI (Homo sapiens, UniProt P15907); assay: Sialyltransferase inhibition assay, ST6GALI (reverse-phase HPLC); format: biochemical; conditions: for IC50: α2,6-N-link
T3 construct: purchased RnDSystems.com (R&D Systems)
T3 sequence (P15907 1-406): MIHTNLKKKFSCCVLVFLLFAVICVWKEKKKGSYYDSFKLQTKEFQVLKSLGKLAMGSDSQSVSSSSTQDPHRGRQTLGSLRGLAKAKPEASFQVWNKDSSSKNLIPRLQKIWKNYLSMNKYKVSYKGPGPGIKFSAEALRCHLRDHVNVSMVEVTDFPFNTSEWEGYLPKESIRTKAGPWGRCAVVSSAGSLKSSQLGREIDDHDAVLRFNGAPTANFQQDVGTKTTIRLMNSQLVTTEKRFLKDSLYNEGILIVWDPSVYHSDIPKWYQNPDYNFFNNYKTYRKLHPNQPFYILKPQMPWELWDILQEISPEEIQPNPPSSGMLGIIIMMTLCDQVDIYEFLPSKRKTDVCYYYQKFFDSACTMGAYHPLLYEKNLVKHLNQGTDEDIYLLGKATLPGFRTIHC
Protocol: as §1
as §2, with “mU ST6GALI; 25 μM Galβ1-4GlcNAc;” for “mU ST3GALI; 2.5 mM T-antigen;”, “to 101° C.” for “to 101′C”, “product is” for “product was”, “resolved with” for “resolved by”
as §3

[4] = molecular target: T1, α2,3(N)-sialyltransferase ST3GALIII; assay: Sialyltransferase activity assay, ST3GALIII; format: biochemical
Protocol: as §1, §2
as §2, with “mU ST6GALI; 25 μM Galβ1-4GlcNAc;” for “mU ST3GALI; 2.5 mM T-antigen;”, “to 101° C.” for “to 101′C”, “product is” for “product was”, “resolved with” for “resolved by”
as §3

[5] = test system: metastatic melanoma (B16-F10/Luc cells); assay: Metastatic melanoma-bearing C57BL mice; format: in vivo
Protocol: (§4) Six C57BL mice (3-6 weeks old) were subcutaneously or intravenously injected with 5×10^5 primary melanoma cells (i.e., B16-F10/Luc cells) on day 0 and allowed the tumor to grow for 7 days to create primary or metastatic melanoma model. Then, the test compound (e.g., FCW393, 10 mg/Kg, i.p.) was administered by intraperitoneal injection at the interval of 3 times per week, until day 26 in each animal model. Tumor sizes were measured using calipers at designated days, and tumor volume was calculated using the formula: volume=width^2×length×0.52. The average body weight (BW) of the animals was measured daily, and the concentration of the test compound(s) (i.e., FCW393) in i.p. injection was adjusted proportionally to the BW respectively at the indicated dosage and time. After treatment, mice were sacrified and their white blood cells (WBC), red blood cells (RBC), platelets (PLT), hemoglobin (HGB), hematocrit (HCT), mean corpuscular volume (MCV), mean corpuscular hemoglobin (MCH), and mean corpuscular hemoglobin concentration (MCHC) were respectively determined; their weights of lymph nodes, thymus, and spleen were measured; as well as the levels of aspartate aminotransferase (AST), analine aminotransferase (ALT), albumin, triglyceride, blood urea nitrogen (BUN), creatinine, and uric acid were measured.

[6] = test system: primary melanoma cells (B16-F10/Luc cells); assay: Primary melanoma-bearing C57BL mice; format: in vivo
Protocol: as §4
In this example, effects of FCW393 (or compound 16) on animals implanted with primary melanoma cells were investigated, in which the body weight; the size of the tumor; the respective weights of lymph nodes, thymus, and spleen; the respective functions of liver, kidney, and vascular system; as well as the levels of inflammation and/or stress markers were determined. Results are illustrated in FIGS. 8-15.

[7] = read-out: ST3GALI inhibition percentage

**Q.** For `C[C@H](CCC(=O)OCCOCCOCCOCCN=[N+]=[N-])C1CC[C@H]2[C@@H]3CC[C@@H]4C[C@H](OC(=O)[C@H](CC(=O)O)Nc5ccc([N+](=O)[O-])c6nonc56)CC[C@]4(C)[C@H]3CC[C@]12C` (stereo partly drawn) [Compound 4, (3S)-4-(((3R,5R,8R,9S,10S,13R,14S)-17-((R)-1-azido-13-oxo-3,6,9,12-tetraoxaheptadecan-6-yl)-10,13-dimethylhexadecahydro-1H-cyclopenta[a]phenanthren-3-yl)oxy)-3-((7-nitrobenzo[c][1,2,5]oxadiazol-4-yl)amino)-4-oxobutanoic acid], which “migration of MDA-MD-231 cells” value (MDA-MB-231 cells; 20 μM, FIG. 1) is on record?
**A.** Its value is “inhibited the migration”.

**Q.** What about the IC50 (MDA-MB-231 cells; Homo sapiens, MDA-MB-231, breast cancer cells treated with 2-30 μM, transwell, 16 hours, read-out: IC50 on migration) of the same compound?
**A.** Its IC50 is 12 ± 0.13 µM.

**Q.** What about the IC50 ([1]; IC50 (μM) ST3GALIII) of the same compound?
**A.** The IC50 was 1.01 ± 0.07 µM.

**Q.** And the inhibition at 500 µM [2, 7]?
**A.** Its inhibition at 500 µM is 0%.

**Q.** And the inhibition at 1000 µM ([2]; measured at 1 mM, read-out: ST3GALI inhibition percentage)?
**A.** Its inhibition at 1000 µM is 50%.

**Q.** And the “selectivity ratio ST3GALI/ST6GALI” value [3]?
**A.** Its value is >102.

**Q.** What about the IC50 ([3]; IC50 (μM) ST6GALI) of the same compound?
**A.** The IC50 was 4.9 ± 0.08 µM.

**Q.** What about the “selectivity ratio ST3GALI/ST3GALIII” value ([4]; calculated based on the concentration, 500 μM, of ST inhibitor used toward α2,3-O-ST3GALI, listed as 4 (FCW66)) of the same compound?
**A.** The value was >495^d.

**Q.** What about the “selectivity ratio ST3GALI/ST3GALIII” value ([4]; calculated based on the concentration, 1 mM, of ST inhibitor used toward α2,3-O-ST3GALI, listed as 4 (FCW66)) of the same compound?
**A.** The value was “(≤990)^e”.

**Q.** What does the source list for `C[C@H](CCC(=O)OCCOCCOCCN=[N+]=[N-])C1CCC2C3CC[C@@H]4C[C@H](NC(=O)[C@H](CC(=O)O)Nc5ccc([N+](=O)[O-])c6nonc56)CC[C@]4(C)C3CC[C@@]21C` (stereo partly drawn) [Compound 16, (3S)-4-(((3R,5R,10S,13R)-17-((R)-5-(2-(2-(2-azidoethoxy)ethoxy)ethoxy)-5-oxopentan-2-yl)-10,13-dimethylhexadecahydro-1H-cyclopenta[a]phenanthren-3-yl)amino)-3-((7-nitrobenzo[c][1,2,5]oxadiazol-4-yl)amino)-4-oxobutanoic acid]?
**A.** weight of lymph node, thymus, or spleen ([5]; FIG. 13): did not affect; levels of WBC, RBC, platelets, HGB, HCT, MCV, MCH, and MCHC ([5]; FIG. 14): nor did it possess any significant effects; level of inflammation marker or stress marker ([5]; FIG. 15): did not affect; growth of tumor (bioluminescence IVIS images) ([5]; days 7 and 14, FIG. 12, panels A and B): suppress the growth of tumor; body weights of the test animals ([6]; 10 mg/Kg, i.p.): without significantly affecting; tumor volume as compared with that of the control animal ([6]; 10 mg/Kg, i.p., 3 times per week): about 1/3; weight of lymph node, thymus, or spleen ([6]; FIG. 9): no effects; counts of white blood cells (WBC), increase ([6]; FIG. 10, panel A): 2 fold; levels of RBC, PLT, HGB, HCT, MCV, MCH and MCHC ([6]; FIG. 10, panels B to H): no effects; level of analine aminotransferase (ALT) ([6]; FIG. 11): did not affect; level of aspartate aminotransferase (AST) ([6]; FIG. 11): reduce; level of inflammation marker (albumin) ([6]; FIG. 11, panel C): no effect; level of the stress marker (uric acid) ([6]; FIG. 11, panel G): slightly increased; melting point: 80 to 81 °C

**Q.** Which IC50 ([1]; read-out: IC50 (μM) ST3GALIII) does the source give for `C[C@H](CCC(=O)O)[C@H]1CC[C@H]2[C@@H]3CC[C@@H]4C[C@H](OC(=O)[C@@H](N)CC(=O)O)CC[C@]4(C)[C@H]3CC[C@]12C` [Lith-O-Asp, reference compound] here?
**A.** The IC50 was 12 µM.

**Q.** And the IC50 ([2]; α2,3-O-link)?
**A.** The IC50 was 39 ± 1.26 µM.

**Q.** What about the “selectivity ratio ST3GALI/ST6GALI” value [3] of the same compound?
**A.** The value was 3.

**Q.** And the IC50 ([3]; read-out: IC50 (μM) ST6GALI)?
**A.** Its IC50 is 15.78 ± 0.13 µM.

**Q.** And the “selectivity ratio ST3GALI/ST3GALIII” value ([4]; comparative controls with measured ST3GALI IC50)?
**A.** Its value is 3.

**Q.** Which results are given for `C[C@H](CCC(=O)OCCOCCOCCOCCOCCN=[N+]=[N-])C1CC[C@H]2[C@@H]3CC[C@@H]4C[C@H](OC(=O)[C@H](CC(=O)O)Nc5ccc([N+](=O)[O-])c6nonc56)CC[C@]4(C)[C@H]3CC[C@]12C` (stereo partly drawn) [Compound 5, (3S)-4-(((3R,5R,8R,9S,10S,13R,14S)-17-((R)-1-azido-16-oxo-3,6,9,12,15-pentaoxaicosan-19-yl)-10,13-dimethylhexadecahydro-1H-cyclopenta[a]phenanthren-3-yl)oxy)-3-((7-nitrobenzo[c][1,2,5]oxadiazol-4-yl)amino)-4-oxobutanoic acid]?
**A.** IC50 ([1]; IC50 (μM) ST3GALIII): 0.97 ± 0.14 µM; inhibition at 500 µM [2, 7]: 0%; selectivity ratio ST3GALI/ST6GALI [3]: >99; IC50 ([3]; IC50 (μM) ST6GALI): 5.03 ± 0.2 µM; selectivity ratio ST3GALI/ST3GALIII ([4]; calculated based on the concentration, 500 μM, of ST inhibitor used toward α2,3-O-ST3GALI): >516^d
